The results in this text go back to patent US9732094B2, “Arylquinazolines” (Merck Patent GmbH, priority 2013, dated 2017).

Like-named read-outs stand apart in the source and are kept apart here. A value given as a limit tells only on which side of the number the result lay.

The target of data set [1] is DNA-PK phosphorylation at serine 2056 (Homo sapiens (Human), UniProt P78527). As to the kind of experiment: DNA-PK phosphorylation at serine 2056 (cellular), bleomycin-treated HCT116 cells, ELISA. Type of data set: cell-based. To be noted: read-out: IC50 pDNA-PK. Put shortly:
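Test compounds and bleomycin (10 μM) are added to adherent HCT116 cells for 6 h. Detection uses an HRP-based chemiluminescent ELISA, with phospho-DNA-PK signals standardised to total protein.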
A general note: An ELISA detects its analyte on a solid surface through an enzyme-linked reagent.

Data set [2] concerns the target DNA-PK (Homo sapiens (Human), UniProt P78527). The data set can be described thus: DNA-PK assay (biochemical), flashplate 33P-ATP kinase assay. Put shortly:
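Radiometric kinase reaction in streptavidin-coated flashplates, stopped with 200 mM EDTA, then 30 min room-temperature incubation and saline washes.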

Data set [3] has as its target Kv11.1 (hERG) (Homo sapiens (Human), UniProt Q12809). As to the kind of experiment: Kv11.1 (hERG) ion channel activity (patch clamp assay), HEK293 cells transfected with hERG gene. (hERG is a cardiac potassium channel; its block is linked to QT prolongation.)
[4] abbreviates: cellular, HCT116 cells, 10 μM bleomycin, six hours.
[5] abbreviates: read-out: Ki [Kv1.11 hERG], patch clamp, HEK293 transfected with hERG gene.
The mark [6] stands for this setting: cellular DNA-PK phosphorylation at serine 2056, HCT116.
Where [7] appears, read: Ki [Kv1.11 hERG], hERG patch clamp assay (cells without asterisk).
The mark [8] stands for this setting: Ki [Kv1.11 hERG], patch clamp, HEK293 transfected with hERG gene.
Where [9] appears, read: read-out: Ki [Kv1.11 hERG], hERG patch clamp assay (cells without asterisk).

Chain of Kv11.1 (hERG) (Q12809 whole entry): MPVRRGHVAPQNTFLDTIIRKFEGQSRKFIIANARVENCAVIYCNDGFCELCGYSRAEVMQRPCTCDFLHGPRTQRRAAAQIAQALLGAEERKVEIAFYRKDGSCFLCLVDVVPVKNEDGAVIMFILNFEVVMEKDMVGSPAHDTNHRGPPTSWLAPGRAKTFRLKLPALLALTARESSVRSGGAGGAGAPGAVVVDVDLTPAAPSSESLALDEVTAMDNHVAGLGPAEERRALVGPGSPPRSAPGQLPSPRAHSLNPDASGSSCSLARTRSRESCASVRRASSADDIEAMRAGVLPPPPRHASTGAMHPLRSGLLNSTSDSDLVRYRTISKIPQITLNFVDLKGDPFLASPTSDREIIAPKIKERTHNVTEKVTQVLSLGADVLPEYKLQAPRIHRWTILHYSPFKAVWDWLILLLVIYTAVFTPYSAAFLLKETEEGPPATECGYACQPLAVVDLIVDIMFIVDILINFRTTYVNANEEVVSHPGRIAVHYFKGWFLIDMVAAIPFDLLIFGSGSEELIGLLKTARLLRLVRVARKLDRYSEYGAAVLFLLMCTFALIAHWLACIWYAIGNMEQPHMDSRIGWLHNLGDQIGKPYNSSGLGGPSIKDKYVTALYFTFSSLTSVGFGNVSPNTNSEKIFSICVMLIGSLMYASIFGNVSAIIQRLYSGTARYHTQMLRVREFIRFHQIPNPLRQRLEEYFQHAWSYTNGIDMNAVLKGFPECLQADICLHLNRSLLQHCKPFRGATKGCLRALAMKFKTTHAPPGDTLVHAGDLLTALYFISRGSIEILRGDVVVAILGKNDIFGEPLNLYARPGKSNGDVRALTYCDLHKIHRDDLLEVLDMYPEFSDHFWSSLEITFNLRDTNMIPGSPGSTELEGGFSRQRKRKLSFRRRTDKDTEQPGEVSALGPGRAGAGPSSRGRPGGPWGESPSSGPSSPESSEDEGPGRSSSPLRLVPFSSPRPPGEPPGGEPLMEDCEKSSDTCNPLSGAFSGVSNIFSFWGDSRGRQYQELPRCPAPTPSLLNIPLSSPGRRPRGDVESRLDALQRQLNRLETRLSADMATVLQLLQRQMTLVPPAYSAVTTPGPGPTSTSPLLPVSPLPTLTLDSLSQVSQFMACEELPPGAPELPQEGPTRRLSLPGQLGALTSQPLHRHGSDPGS

On to `COc1ccc(C(O)c2cc(-c3ncnc4cc(N5CCOCC5)ccc34)c(F)cc2F)c(F)c1` (stereo not drawn) [Example 124, [2,4-Difluoro-5-(7-morpholin-4-yl-quinazolin-4-yl)-phenyl]-(2-fluoro-4-methoxy-phenyl)methanol], for which the 50% inhibitory concentration (IC50) fell in the range of 0.5 to 5 µM in data set [1] (setting [4]) and 7 to 30 nM in data set [2] (enzymatic, 5 μM ATP). For the same compound, in data set [3] (setting [5]), the Ki was less than 10 µM.
`NC(=O)C(c1cc(-c2ncnc3cc(N4CCOCC4)ccc23)ccc1Cl)c1nccnc1Cl` (stereo not drawn) [Example 315, 2-[2-Chloro-5-(7-morpholin-4-yl-quinazolin-4-yl)-phenyl]-2-(3-chloro-pyrazin-2-yl)-acetamide]: the half-maximal inhibitory concentration (IC50) in data set [1] (setting [6]) was 10 to 30 µM; in data set [2] (biochemical DNA-PK assay), greater than 30 nM. In data set [3] (setting [7]), this compound had a Ki of 10 to 15 µM.
Turning to `OC(c1cc(-c2ncnc3cc(N4CCOCC4)ccc23)ccc1Cl)c1ncncc1F` (stereo not drawn) [Example 389, [2-Chloro-5-(7-morpholin-4-yl-quinazolin-4-yl)-phenyl]-(5-fluoro-pyrimidin-4-yl)-methanol], the concentration for half-maximal inhibition (IC50) was 5 to 10 µM in data set [1] (setting [6]) and 7 to 30 nM in data set [2] (biochemical DNA-PK assay). Further, the inhibition constant (Ki) in data set [3] (setting [7]) was in the range of 10 to 15 µM.
For the compound `Cc1nc(C(O)c2cnc(F)c(-c3ncnc4cc(N5CCOCC5)ncc34)c2)sc1C` (stereo not drawn) [Example 203, (4,5-Dimethyl-thiazol-2-yl)-[6-fluoro-5-(7-morpholin-4-yl-pyrido[4,3-d}-pyrimidin-4-yl)-pyridin-3-yl]-methanol], the IC50 in data set [1] (Table 5, HCT116 cells) was 10 to 30 µM; in data set [2] (Table 5), greater than 30 nM. Also, in data set [3] (read-out: Ki [Kv1.11 hERG], Table 5), the Ki was greater than 25 µM.
As to `CCOc1cnnc(C(O)c2ccc(F)c(-c3ncnc4cc(N5CCOCC5)ccc34)c2)c1` (stereo not drawn) [Example 79, (5-Ethoxypyridazin-3-yl)-[4-fluoro-3-(7-morpholin-4-yl-quinazolin-4-yl)phenyl]-methanol], the IC50 in data set [1] (setting [4]) is 5 to 10 µM; in data set [2] (enzymatic, 5 μM ATP), greater than 30 nM. The compound also gave an inhibition constant Ki in data set [3] (setting [8]) of 15 to 25 µM.
In the same order, the values of `C#Cc1nc(-c2cc(C(O)c3nccs3)ccc2F)c2ccc(N3CCOCC3)cc2n1` (stereo not drawn) [Example 216, [3-(2-Ethynyl-7-morpholin-4-yl-quinazolin-4-yl)-4-fluorophenyl]-thiazol-2-yl-methanol] are 10 to 30 µM, less than 3 nM and 10 to 15 µM.
In the case of `OC(c1cc(-c2ncnc3cc(N4CCOCC4)ccc23)c(F)cc1F)c1nncc2ccsc12` (stereo not drawn) [Example 342, [2,4-Difluoro-5-(7-morpholin-4-yl-quinazolin-4-yl)-phenyl]thieno[2,3-d}-pyridazin-7-yl-methanol], the IC50 was less than 0.5 µM in data set [1] (setting [6]) and less than 3 nM in data set [2] (biochemical DNA-PK assay). In data set [3] (setting [9]), the Ki is greater than 25 µM.
Consider `OC(c1ccc(Cl)nn1)c1cc(-c2ncnc3cc(N4CCOCC4)ccc23)c(F)cc1F` (stereo not drawn) [Example 49, (6-Chloro-pyridazin-3-yl)-[2,4-difluoro-5-(7-morpholin-4-yl-quinazolin-4-yl)phenyl]-methanol], for which the IC50 in data set [1] (setting [4]) was 0.5 to 5 µM; in data set [2] (enzymatic, 5 μM ATP), less than 3 nM. In addition, in data set [3] (setting [5]), the Ki is greater than 25 µM.
For the compound `OC(c1cc(-c2ncnc3cc(N4CCOCC4)ccc23)ccc1F)c1ncnc2sccc12` (stereo not drawn) [Example 406, [2-Fluoro-5-(7-morpholin-4-yl-quinazolin-4-yl)-phenyl]thieno[2,3-d}-pyrimidin-4-yl-methanol], the IC50 was less than 0.5 µM in data set [1] (setting [6]) and less than 3 nM in data set [2] (biochemical DNA-PK assay). In addition, in data set [3] (setting [7]), the Ki fell in the range of 10 to 15 µM.
As to `COC(c1ccc(F)c(-c2ncnc3cc(N4CCOCC4)ccc23)c1)c1nccnc1C` (stereo not drawn) [Example 353, 4-{2-Fluoro-5-[methoxy-(3-methyl-pyrazin-2-yl)methyl]-phenyl}-7-morpholin-4-ylquinazoline], the IC50 fell in the range of 10 to 30 µM in data set [1] (setting [6]) and 7 to 30 nM in data set [2] (biochemical DNA-PK assay). The inhibition constant Ki in data set [3] (setting [9]) is greater than 25 µM.
`OC(c1cc(-c2ncnc3cc(N4CCOCC4)ccc23)ccc1Cl)c1nccn2cccc12` (stereo not drawn) [Example 361, (2-Chloro-5-(7-morpholin-4-yl-quinazolin-4-yl)-phenyl]pyrrolo[1,2-a]-pyrazin-1-ylmethanol]: the half-inhibitory concentration (IC50) in data set [1] (setting [6]) was in the range of 0.5 to 5 µM; in data set [2] (biochemical DNA-PK assay) it was 3 to 7 nM. In addition, the Ki in data set [3] (setting [9]) was less than 10 µM.
On to `COc1cnc(Cl)c(C(O)c2ccc(F)c(-c3ncnc4cc(N5CCOCC5)ccc34)c2)c1` (stereo not drawn) [Example 22, (2-Chloro-5-methoxy-pyridin-3-yl)-[4-fluoro-3-(7-morpholin-4-yl-quinazolin-4-yl)phenyl]-methanol], for which the IC50 in data set [1] (setting [4]) is less than 0.5 µM; in data set [2] (enzymatic, 5 μM ATP) it was less than 3 nM. For the same compound, in data set [3] (setting [5]), the Ki is less than 10 µM.
Consider `COc1ccc(C(O)c2cc(-c3ncnc4cc(N5CCOCC5)ccc34)c(F)cc2F)nc1` (stereo not drawn) [Example 224, [2,4-Difluoro-5-(7-morpholin-4-yl-quinazolin-4-yl)-phenyl]-(5-methoxy-pyridin-2-yl)methanol], for which the IC50 in data set [1] (Table 7, HCT116 cells) fell in the range of 0.5 to 5 µM; in data set [2] (Table 7), 3 to 7 nM. The Ki in data set [3] (Ki [Kv1.11 hERG], Table 7) lay within 15 to 25 µM.
As for `OC(c1cc(-c2ncnc3cc(N4CCOCC4)ccc23)ccc1Cl)c1ncncc1F` (stereo not drawn) [Example 412, [2-Chloro-5-(7-morpholin-4-yl-quinazolin-4-yl)-phenyl]-(5-fluoro-pyrimidin-4-yl)-methanol], the IC50 in data set [1] (setting [6]) was in the range of 5 to 10 µM; in data set [2] (biochemical DNA-PK assay), 7 to 30 nM. Moreover, the Ki in data set [3] (setting [7]) was 15 to 25 µM.
Turning to `NC(=O)C(c1cccnc1)c1cc(-c2ncnc3cc(N4CCOCC4)ccc23)c(F)cc1Cl` (stereo not drawn) [Example 293, 2-[2-Chloro-4-fiuoro-5-(7-morpholin-4-yl-quinazolin-4-yl)-phenyl]-2-pyridin-3-ylacetamide], the IC50 was 5 to 10 µM in data set [1] (setting [6]) and 3 to 7 nM in data set [2] (biochemical DNA-PK assay). Further, the Ki in data set [3] (setting [9]) is greater than 25 µM.
As for `CN(C)CCOc1ccc(C(O)c2ccc(F)c(-c3ncnc4cc(N5CCOCC5)ccc34)c2)nn1` (stereo not drawn) [Example 133, [6-(2-Dimethyl-amino-ethoxy)-pyridazin-3-yl]-[4-fluoro-3-(7-morpholin-4-yl-quinazolin-4-yl)-phenyl]methanol], the IC50 in data set [1] (setting [4]) was 5 to 10 µM; in data set [2] (enzymatic, 5 μM ATP) it was 7 to 30 nM. Moreover, in data set [3] (setting [5]), the Ki was greater than 25 µM.
As to `NC(=O)C(c1cccnc1)c1ccc(F)c(-c2ncnc3cc(N4CCOCC4)ccc23)c1` (stereo not drawn) [Example 295, 2-[4-Fluoro-3-(7-morpholin-4-yl-quinazolin-4-yl)-phenyl]-2-pyridin-3-ylacetamide], the IC50 in data set [1] (setting [6]) lay in the range of 10 to 30 µM; in data set [2] (biochemical DNA-PK assay), 7 to 30 nM. In addition, the Ki in data set [3] (setting [9]) was greater than 25 µM.
For the compound `OC(c1ccc(F)c(-c2ncnc3cc(N4CCOCC4)ccc23)c1)c1ncccc1Cl` (stereo not drawn) [Example 466, (3-Chloro-pyridin-2-yl)-[4-fluoro-3-(7-morpholin-4-yl-quinazolin-4-yl)-phenyl]methanol], the IC50 in data set [1] (setting [6]) was in the range of 0.5 to 5 µM; in data set [2] (biochemical DNA-PK assay), 7 to 30 nM. In addition, the Ki in data set [3] (setting [9]) was 15 to 25 µM.
For `Cn1ncc2c(C(O)c3cc(-c4ncnc5cc(N6CCOCC6)ccc45)ccc3F)ncnc21` (stereo not drawn) [Example 391, [2-Fluoro-5-(7-morpholin-4-yl-quinazolin-4-yl)-phenyl]-(1-methyl-1H-pyrazolo[3,4-d}-pyrimidin-4-yl)-methanol], the IC50 in data set [1] (setting [6]) fell in the range of 0.5 to 5 µM; in data set [2] (biochemical DNA-PK assay) it was 7 to 30 nM. The compound further yielded a Ki in data set [3] (setting [7]) of 15 to 25 µM.
As to `Cc1nccnc1[C@@H](O)c1ccc(F)c(-c2ncnc3cc(N4CCOCC4)cnc23)c1` [Example 233, (S)-[4-Fluoro-3-(7-morpholin-4-yl-pyrido[3,2-d}-pyrimidin-4-yl)-phenyl]-(3-methyl-pyrazin-2-yl)-methanol], the results for the IC50 in data set [1] (setting [6]) and in data set [2] (biochemical DNA-PK assay) were 10 to 30 µM and 7 to 30 nM, respectively. Also, in data set [3] (setting [9]), the Ki is greater than 25 µM.
`CC(C)(C)Oc1nccnc1C(O)c1ccc(F)c(-c2ncnc3cc(N4CCOCC4)ccc23)c1` (stereo not drawn) [Example 13, (3-tert-Butoxy-pyrazin-2-yl)-[4-fluoro-3-(7-morpholin-4-yl-quinazolin-4-yl)phenyl]-methanol]: the concentration for half-maximal inhibition (IC50) in data set [1] (setting [4]) is 10 to 30 µM; in data set [2] (enzymatic, 5 μM ATP) it was greater than 30 nM. Besides, in data set [3] (setting [8]), the Ki lay within 10 to 15 µM.
`OC(c1cc(-c2ncnc3cc(N4CCOCC4)ccc23)ccc1Cl)c1ncnc2ccoc12` (stereo not drawn) [Example 432, [2-Chloro-5-(7-morpholin-4-yl-quinazolin-4-yl)-phenyl]furo[3,2-d}-pyrimidin-4-yl-methanol]: the results for the concentration for half-maximal inhibition (IC50) in data set [1] (setting [6]) and in data set [2] (biochemical DNA-PK assay) were 0.5 to 5 µM and 7 to 30 nM, respectively. In data set [3] (setting [9]), the Ki was 10 to 15 µM.
Take `N#CCCOc1ccc(C(O)c2cc(-c3ncnc4cc(N5CCOCC5)ccc34)c(F)cc2Cl)nn1` (stereo not drawn) [Example 107, 3-(6-{[2-Chloro-4-fluoro-5-(7-morpholin-4-yl-quinazolin-4-yl)-phenyl]hydroxy-methyl}pyridazin-3-yl-oxy)propionitrile]: the IC50 in data set [1] (setting [4]) fell in the range of 0.5 to 5 µM; in data set [2] (enzymatic, 5 μM ATP), 3 to 7 nM. For the same compound, the Ki in data set [3] (setting [5]) is greater than 25 µM.
On to `Cc1cncnc1C(O)c1cc(-c2ncnc3cc(N4CCOCC4)ccc23)ccc1Cl` (stereo not drawn) [Example 419, [2-Chloro-5-(7-morpholin-4-yl-quinazolin-4-yl)-phenyl]-(5-methyl-pyrimidin-4-yl)-methanol], for which the IC50 lay within 0.5 to 5 µM in data set [1] (setting [6]) and 7 to 30 nM in data set [2] (biochemical DNA-PK assay). For the same compound, the Ki in data set [3] (setting [9]) is 15 to 25 µM.
On to `Cn1nc(C(O)c2cc(-c3ncnc4cc(N5CCOCC5)ccc34)c(F)cc2F)ccc1=O` (stereo not drawn) [Example 219, 6-{[2,4-Difluoro-5-(7-morpholin-4-yl-quinazolin-4-yl)-phenyl]hydroxy-methyl}-2-methyl-2H-pyridazin-3-one], for which the IC50 lay in the range of 0.5 to 5 µM in data set [1] (Table 7, HCT116 cells) and 3 to 7 nM in data set [2] (Table 7). Besides, the Ki in data set [3] (Ki [Kv1.11 hERG], Table 7) was in the range of 15 to 25 µM.

As a reminder, the IC50 is the concentration that inhibits the measured activity by half. One may read the Ki as a measure of affinity in units of concentration, obtained from inhibition or displacement.
